Experimental data taken from patent US8633203B2, “Use of pterocarpans as active anti-cellulite ingredients” (Symrise AG, priority 2009, dated 2014).

What was measured:
[1] = tested on: Primary human subcutaneous preadipocytes differentiated to adipocytes; test: lipolysis assay, free glycerol in supernatant; format: cell-based; conditions: for Activity with regard to lipolysis (neither inhibited nor stimulated): max. use concentration 25 ppm, about 20 hours incubation; for IC50 inhibition of the lipolysis: mean values of at least 2 independent tests
Protocol: Primary human subcutaneous preadipocytes (Lonza) are seeded in a 96-well microtiter plate at a concentration of 1×10^4 cells/well. Until confluence is reached, cultivation takes place at 37° C. and 5% CO2 in DMEM, enriched with 10% foetal calf serum. To induce the differentiation of preadipocytes to adipocytes there follows the addition DMEM enriched with 10% foetal calf serum, with added 10 μg/ml insulin, 1 μM dexamethasone and 1 mM IBMX (3-isobutyl-1-methylxanthine). A cultivation for 14 to 20 days follows. During this time, the medium can optionally be replaced by DMEM, enriched with 10% foetal calf serum.
Various concentrations of the test substances are applied to the cells in DMEM, with bovine serum albumen added. After about 20 hours of incubation, the quantification takes place of free glycerol in the supernatant of the cells, which is discharged therefrom after hydrolysis of triglycerides in the cells and is a measure of the lipolysis of the cells. The quantification of the free glycerol is carried out based on an enzymatic method with a free glycerol reagent.
The stimulation of the lipolysis in the presence of test substances is calculated according to the following equation: […]
The […] is calculated from the lipolysis stimulation [%] in a series of dilutions of tested samples. This is the concentration at which the lipolysis is 50% stimulated.
The inhibition of the lipolysis in the presence of test substances is calculated according to the following equation: […]
The IC50 is calculated from the lipolysis inhibition [%] in a series of dilutions of tested samples. This is the concentration at which the lipolysis is 50% inhibited.

lipoprotein lipase (LPL) = molecular target: T1, lipoprotein lipase (LPL) (Mus musculus, UniProt P11152); test: inhibition of lipoprotein lipase from differentiated 3T3-L1 cells, MUF oleate hydrolysis; format: biochemical; conditions: LPL from 3T3-L1 cells; MUF oleate substrate; mean values of at least 2 independent tests
T1 construct: endogenous in cells; host or cells: differentiated 3T3-L1 cells (mouse); heparin-released supernatant
T1 sequence (P11152 28-474): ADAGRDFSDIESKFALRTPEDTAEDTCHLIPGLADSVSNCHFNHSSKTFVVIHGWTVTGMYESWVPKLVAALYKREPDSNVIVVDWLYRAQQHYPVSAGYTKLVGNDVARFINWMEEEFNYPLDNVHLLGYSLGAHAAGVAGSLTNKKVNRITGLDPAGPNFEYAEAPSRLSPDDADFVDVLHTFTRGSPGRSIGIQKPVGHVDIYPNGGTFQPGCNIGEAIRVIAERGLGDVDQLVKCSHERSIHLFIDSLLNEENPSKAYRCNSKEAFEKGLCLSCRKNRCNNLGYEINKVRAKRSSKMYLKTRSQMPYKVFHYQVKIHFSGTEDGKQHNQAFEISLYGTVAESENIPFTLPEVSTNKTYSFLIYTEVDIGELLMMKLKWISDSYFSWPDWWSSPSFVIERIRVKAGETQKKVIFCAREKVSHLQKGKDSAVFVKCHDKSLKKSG
Protocol: The results of the inhibition of the PL are used as a preliminary test and are confirmed on LPL. To obtain LPL, 3T3-L1 cells (mouse embryonal fibroblast adipocyte cell line) are seeded in a 6-well plate with collagen I-coating in a concentration of 3×10^5 cells/well. The cultivation and differentiation of the cells takes place analogously to the details in Example 2 (adipogenesis assay). During the differentiation LPL, is increasingly expressed. The LPL is present in a membrane-bound state and is released by one hour incubation with heparin solution at 2-8° C. in the supernatant of the cells.
The LPL thus obtained, in the presence of test substances in different use concentrations, has methylumbelliferyl oleate (MUF oleate) added as the substrate. Fluorescent methylumbelliferyl (MUF) is produced by hydrolysis of the MUF oleate by LPL and is quantified. The inhibition of the hydrolysis of the MUF oleate is a measure of the inhibition of the activity of the LPL and therefore the lipogenesis.
The IC50 is calculated from the inhibition of the LPL [%] in a series of dilutions of tested samples. This is the concentration at which the activity of the LPL and therefore the lipogenesis is 50% inhibited.

pancreatic lipase (PL) = molecular target: T2, pancreatic lipase (PL) (Sus scrofa, UniProt P00591); test: inhibition of pancreatic lipase, MUF oleate hydrolysis; format: biochemical; conditions: MUF oleate substrate; mean values of at least 2 independent tests
T2 construct: purchased Sigma-Aldrich
T2 sequence (P00591 1-450): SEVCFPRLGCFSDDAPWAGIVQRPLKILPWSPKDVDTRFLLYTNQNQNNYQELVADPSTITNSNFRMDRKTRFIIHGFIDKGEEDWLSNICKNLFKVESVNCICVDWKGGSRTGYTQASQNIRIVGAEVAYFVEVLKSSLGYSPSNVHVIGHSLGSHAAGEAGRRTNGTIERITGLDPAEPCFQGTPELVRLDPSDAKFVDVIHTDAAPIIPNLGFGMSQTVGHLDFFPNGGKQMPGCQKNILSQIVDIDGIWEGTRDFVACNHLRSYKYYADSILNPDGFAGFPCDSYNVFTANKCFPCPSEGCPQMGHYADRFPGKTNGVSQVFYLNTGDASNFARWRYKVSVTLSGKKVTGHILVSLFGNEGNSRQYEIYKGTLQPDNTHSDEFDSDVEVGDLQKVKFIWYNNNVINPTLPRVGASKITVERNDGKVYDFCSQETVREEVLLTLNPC
Text: Lipogenesis is taken to mean the storing of triglycerides in adipocytes. The inhibition of this storage can take place by means of the inhibition of the activity of extracellular lipoprotein lipase (LPL) in that the hydrolysis of extracellular triglycerides and therefore the absorption of free fatty acids by adipocytes is reduced. As a preliminary test, the inhibition of pancreatic lipase (PL) is investigated.
PL (Sigma-Aldrich), in the presence of test substances in different use concentrations has methylumbelliferyl oleate (MUF oleate) added as a substrate. Fluorescent methylumelliferon (MUF), is produced by hydrolysis of the MUF oleate by PL and is quantified. The inhibition of the hydrolysis of the MUF oleate is a measure of the inhibition of activity of the PL.
The IC50 is calculated from the inhibition of the PL [%] in a series of dilutions of tested samples. This is the concentration, at which the activity of the PL is 50% inhibited.

3T3-L1-cells = test: adipogenesis inhibition assay (Nile Red lipid staining); format: cell-based, mouse; conditions: mean values of at least 2 independent tests
Protocol: 3T3-L1-cells (mouse embryonal fibroblast-like adipocyte cell line) are seeded in a 48-well plate with collagen I-coating in a concentration of 3×10^4 cells/well. After 72 h cultivation at 37° C. and 5% CO2 in DMEM (Dulbecco's Modified Eagle Medium), enriched with 10% calf serum, various concentrations of the test substances in DMEM, enriched with 10% foetal calf serum and to which are added 1 μg/ml insulin, 0.25 μM dexamethasone and 0.5 mM IBMX (3-isobutyl-1-methylxanthine), are added and incubated for a further 48 h. A media change takes place, in that DMEM, enriched with 10% foetal calf serum and with 1 μg/ml insulin added, are applied. After renewed cultivation for 48 h, a further media change takes place, in which DMEM, enriched with 10% foetal calf serum, is applied.
After a further incubation for 72 h, the intracellularly stored lipids are quantified as a measure for the differentiation of the cells by measuring the fluorescence after dyeing of the lipids with the fluorescent dye Nile Red.
The inhibition of the adipogenesis in the presence of the test substances is calculated according to the following equation: […]
The IC50 is calculated from the adipogenesis inhibition (%) in a series of dilutions of tested samples. This is the concentration at which the adipogenesis is 50% inhibited.

fat cells = test: own investigations on differentiation of fat cells; format: cell-based; conditions: depending on the use concentration
[2] = phototoxic potential, photo-irritation factor according to OECD guideline 432; conditions: own investigations
Text: The phototoxic potential is expressed as a photo-irritation factor (PIF). […] It applies here that with a PIF of less than 2, no phototoxic potential exists while a phototoxic potential exists at a PIF of more than 5. With a PIF of between 2 and 5, there is possibly a phototoxic potential.

IC50 inhibition of the LPL (lipoprotein lipase (LPL))	IC50 inhibition of the PL (pancreatic lipase (PL))	Molecule	Activity with regard to lipolysis (neither inhibited nor stimulated) [1]	IC50 adipogenesis inhibition (3T3-L1-cells)	also measured
104.2 ppm	147 ppm	Oc1ccc2c(c1)OC[C@H]1c3cc4c(cc3O[C@@H]21)OCO4 [Maackiain]	No activity (25 ppm)	25.5 ppm	–
788 ppm	425 ppm	COc1ccc2c(c1)OC1c3ccc(O)cc3OCC21 (stereo not drawn) [Medicarpin]	No activity (25 ppm)	54.0 ppm	–

Continued, molecule first:

Molecule	IC50 inhibition of the LPL (lipoprotein lipase (LPL))	IC50 inhibition of the PL (pancreatic lipase (PL))	Activity with regard to lipolysis (neither inhibited nor stimulated) [1]	IC50 adipogenesis inhibition (3T3-L1-cells)	also measured
COc1ccc2c(c1)OC[C@H]1c3ccccc3O[C@@H]21 [3-methoxypterocarpan]	67.0 ppm	350 ppm	No activity (25 ppm)	50.9 ppm	–
COc1ccc(-c2coc3cc(O)ccc3c2=O)cc1 [Formononetin, reference compound]	–	–	–	–	IC50 inhibition of the lipolysis [1]: 53.7 ppm
COc1cc(O)c2c(=O)c(-c3ccc(O)c(O)c3)coc2c1 [Santal, reference compound]	–	–	–	–	IC50 inhibition of the lipolysis [1]: 1.92 ppm; effect on lipolysis (route iii), in words ([1]; own investigations): inhibition of lipolysis
O=c1c(-c2ccc(O)cc2)coc2cc(O)cc(O)c12 [genistein]	–	–	–	–	effect on differentiation of fat cells, in words (fat cells): inhibited or stimulated
COc1ccc(-c2coc3cc(O)c(OC)cc3c2=O)cc1O [odoratin]	–	–	–	–	phototoxic potential, in words [2]: notable phototoxic potential
cladastrin	–	–	–	–	phototoxic potential, in words [2]: notable phototoxic potential
